Measured values from US20110015080A1, “Solution-based methods for RNA expression profiling” (MASSACHUSETTS INSTITUTE OF TECHNOLOGY, priority 2005, published 2011).
Several values for one entry are separate records, joined by “and”; a condition that tells them apart may be missing. Equal values may be shown once.

System: HL60 (human promyelocytic leukemia) cells
Assay: LMA-FlexMAP bead-based gene expression signature analysis of total RNA from HL60 cells treated with tretinoin or DMSO (ninety transcripts); as to FlexMap signal, transcript NM 000875 (LUA#55): test concentration or dose not given here
[1] = Experiment 2, HL60 cells, Tretinoin-treated, replicate columns
[2] = Table 6B Experiment 1, tretinoin-treated HL60 samples, one column per replicate

`CC1=C(/C=C/C(C)=C/C=C/C(C)=C/C(=O)O)C(C)(C)CCC1` [tretinoin, all-trans-retinoic acid] was tested. Which “FlexMap signal, transcript NM_000698 (LUA#14)” value [1] did it give?
The value was 1787 and 1685 and 64.5 and 1902 and 539 and 1934.5 and 1914.5 and 1773 and 1769 and 1871.5.

And the “FlexMap signal, transcript NM_000875 (LUA#55)” value [1]?
Its value is 89 and 104 and 28.5 and 81 and 36 and 79 and 80 and 85 and 90 and 87.5.

And the “FlexMap signal, transcript NM_000962 (LUA#7)” value [1]?
The value was 873 and 822.5 and 65 and 900 and 253 and 845 and 904.5 and 846 (2×) and 930.

What about the “FlexMap signal, transcript NM_001974 (LUA#11)” value [1] of the same molecule?
The value was 494 and 340.5 and 30 and 516.5 and 92.5 and 533 and 515 and 493 and 470 and 539.

What about the “FlexMap signal, transcript NM_002358 (LUA#53)” value [1] of the same molecule?
Its value is 109 (2×) and 94 and 33.5 and 103 (2×) and 39 and 96 and 97 and 119.

What about the “FlexMap signal, transcript NM_003825 (LUA#8)” value [1] of the same molecule?
The value was 721 and 689.5 and 102 and 772 and 220 and 800 and 733 and 738 and 727 and 764.

And the “FlexMap signal, transcript NM_004514 (LUA#46)” value [1]?
The value was 399 and 424.5 and 25 and 469 and 99 and 428 and 445 and 422 and 420.5 and 460.

And the “FlexMap signal, transcript NM_004631 (LUA#52)” value [1]?
Its value is 399 (2×) and 397 and 38.5 and 391 and 97 and 396 and 399.5 and 401.5 and 424.

What about the “FlexMap signal, transcript NM_004782 (LUA#4)” value [1] of the same molecule?
The value was 1036.5 and 932 and 45 and 979.5 and 253 and 1005 and 1030 and 914 and 929 and 1044.

And the “FlexMap signal, transcript NM_005736 (LUA#1)” value [1]?
Its value is 384.5 and 298.5 and 36.5 and 390 and 90.5 and 408 and 411 and 385 and 392 and 414.5.

And the “FlexMap signal, transcript NM_006457 (LUA#13)” value [1]?
Its value is 131 (2×) and 121 and 43 and 115.5 (2×) and 65 and 118 and 120 and 117.

What about the “FlexMap signal, transcript NM_006773 (LUA#47)” value [1] of the same molecule?
Its value is 284 and 354.5 and 28 and 270 and 68 and 273 and 283 and 272 and 279 and 305.

And the “FlexMap signal, transcript NM_006948 (LUA#51)” value [1]?
Its value is 980 and 887 and 51 and 974 and 248 and 1014 and 1006 and 963.5 and 958.5 and 1024.5.

And the “FlexMap signal, transcript NM_007331 (LUA#50)” value [1]?
The value was 102 and 115 (2×) and 24 and 47 and 95.5 and 96 and 97.5 and 94.5 and 111.5.

And the “FlexMap signal, transcript NM_013402 (LUA#54)” value [1]?
Its value is 89 and 83 and 30 and 82 and 46 and 90.5 and 95.5 and 85 and 84.5 and 97.

What about the “FlexMap signal, transcript NM_014288 (LUA#48)” value [1] of the same molecule?
The value was 63.5 and 55 and 22 and 52 and 33 and 60 and 57 (3×) and 65.

And the “FlexMap signal, transcript NM_014962 (LUA#5)” value [1]?
Its value is 691 and 618 and 39 and 595.5 and 160 and 670.5 and 705 and 677.5 and 678 and 710.

And the “FlexMap signal, transcript NM_016061 (LUA#9)” value [1]?
The value was 450 and 440 and 48 and 458 and 121 and 470.5 and 464 and 468 and 459 and 503.5.

What about the “FlexMap signal, transcript NM_017440 (LUA#49)” value [1] of the same molecule?
The value was 91 and 29 and 88 and 42 and 78 and 97 and 87.5 and 84 and 86.5.

What about the “FlexMap signal, transcript NM_018217 (LUA#3)” value [1] of the same molecule?
The value was 980 and 922 and 48 and 935 and 258 and 992 and 1053.5 and 947 and 966 and 1022.5.

And the “FlexMap signal, transcript NM_032571 (LUA#15)” value [1]?
Its value is 228 (2×) and 244 (2×) and 22.5 and 58.5 and 234 and 208 and 205 and 239.

And the “FlexMap signal, transcript NM_173823 (LUA#6)” value [1]?
Its value is 760 and 592 and 36 and 736 and 182.5 and 758 and 734.5 and 658.5 and 681 and 816.

What about the “FlexMap signal of transcript NM_014288 (LUA#48)” value (Experiment 3, tretinoin-treated samples, one column per sample) of the same molecule?
Its value is 45 and 48 and 30 and 25 and 30.5 and 39 and 43 and 33.

What about the “NM_000070 (FlexMap ID LUA#2) signal” value [2] of the same molecule?
Its value is 329.5 and 386 and 269.5 and 370 and 104.5 and 354 and 372 and 159 and 336 and 318.

What about the “NM_000153 (FlexMap ID LUA#10) signal” value [2] of the same molecule?
Its value is 357.5 and 432 and 324 and 419.5 and 120 and 384 and 408 and 170 and 374 and 377.5.

And the “NM_000632 (FlexMap ID LUA#12) signal” value [2]?
Its value is 323.5 and 222 and 292 and 78 and 307 and 277 and 114 and 275.5 and 251.

What about the “NM_000698 (FlexMap ID LUA#14) signal” value [2] of the same molecule?
The value was 1562 and 1779 and 1332.5 and 1743 and 503 and 1688 and 1686.5 and 787 and 1606 and 1552.5.

What about the “NM_000875 (FlexMap ID LUA#55) signal” value [2] of the same molecule?
The value was 63 and 68 and 53 and 62 (2×) and 36 and 65 and 48 and 74 and 54.

What about the “NM_000962 (FlexMap ID LUA#7) signal” value [2] of the same molecule?
The value was 754 and 894 and 663 and 823 and 294 and 793.5 and 807 and 398 and 772 and 764.

And the “NM_001974 (FlexMap ID LUA#11) signal” value [2]?
The value was 403 and 466 and 288 and 435.5 and 95 and 414 and 430 and 141 and 420.5 and 396.

What about the “NM_002358 (FlexMap ID LUA#53) signal” value [2] of the same molecule?
Its value is 99 (2×) and 113 and 72 and 98 (2×) and 53 and 96 and 58 and 85.

And the “NM_003825 (FlexMap ID LUA#8) signal” value [2]?
Its value is 557 and 658 and 476.5 and 630.5 and 256 and 580 and 609 and 318 and 584 and 550.

And the “NM_004514 (FlexMap ID LUA#46) signal” value [2]?
Its value is 312.5 and 356 and 262 and 320 and 96 and 306 and 313 and 144.5 and 302 and 286.

What about the “NM_004631 (FlexMap ID LUA#52) signal” value [2] of the same molecule?
The value was 304 and 352 and 238 and 334 and 103 and 331 and 310.5 and 135.5 and 326 and 289.5.

And the “NM_004782 (FlexMap ID LUA#4) signal” value [2]?
Its value is 790.5 and 907 and 635 and 855 (2×) and 232 and 870 and 812.5 and 341 and 750.

And the “NM_005736 (FlexMap ID LUA#1) signal” value [2]?
The value was 308 and 336 and 319 and 351 and 89 and 329 and 319.5 and 138.5 and 309 and 279.

And the “NM_006457 (FlexMap ID LUA#13) signal” value [2]?
The value was 144 and 135 (2×) and 113 and 78 and 123 and 136 and 90 and 151.5 and 132.

What about the “NM_006773 (FlexMap ID LUA#47) signal” value [2] of the same molecule?
Its value is 213 (2×) and 257 and 139 and 56.5 and 216 and 219 and 79.5 and 235 and 174.

What about the “NM_006948 (FlexMap ID LUA#51) signal” value [2] of the same molecule?
Its value is 742 and 840.5 and 592.5 and 791.5 and 224 and 773.5 and 795 and 325 and 762 and 716.5.

What about the “NM_007331 (FlexMap ID LUA#50) signal” value [2] of the same molecule?
The value was 85.5 and 97 and 70 and 81 and 42 and 96 and 87 and 53 and 91 and 80.

What about the “NM_013402 (FlexMap ID LUA#54) signal” value [2] of the same molecule?
Its value is 72 (2×) and 71 and 62 and 75 (2×) and 43 and 75.5 and 48.5 and 71.5.

What about the “NM_014288 (FlexMap ID LUA#48) signal” value [2] of the same molecule?
Its value is 64 and 62 and 55 and 61 and 45 and 60 (2×) and 56 and 41.5 and 59.

And the “NM_014962 (FlexMap ID LUA#5) signal” value [2]?
The value was 537 and 575.5 and 414.5 and 556 and 171.5 and 552.5 and 567 and 232 and 576.5 and 516.5.

And the “NM_016061 (FlexMap ID LUA#9) signal” value [2]?
The value was 362.5 and 422 and 297 and 401 and 128 and 385 and 382 and 173 and 357.5 and 357.

And the “NM_017440 (FlexMap ID LUA#49) signal” value [2]?
Its value is 59 and 66 and 55 and 68 (2×) and 40 and 67 and 48.5 and 66.5 and 62.

What about the “NM_018217 (FlexMap ID LUA#3) signal” value [2] of the same molecule?
The value was 747 and 886 and 659.5 and 824 and 225.5 and 823 and 800 and 343 and 785 and 727.

What about the “NM_032571 (FlexMap ID LUA#15) signal” value [2] of the same molecule?
Its value is 144 and 188 and 125 and 161 and 60 and 169 and 164.5 and 81 and 172.5 and 146.

And the “NM_173823 (FlexMap ID LUA#6) signal” value [2]?
Its value is 591.5 and 718 and 482.5 and 654 and 186.5 and 675 and 646 and 291 and 604.5 and 573.
